Measurements published in patent US20190307820A1, “COMPOSITIONS AND METHODS OF USING STAT1/3 INHIBITORS WITH ONCOLYTIC HERPES VIRUS” (priority 2016, published 2019).

Experiments:
[1] = target: T1, STAT1 (Homo sapiens, UniProt P42224); experiment: Western blot of STAT1 phosphorylation in U87 cells; format: cell-based
T1 construct: Extracted protein was then subjected to western blot assay; endogenous in cells; host or cells: U87 cells, with or without HrR3 infection
T1 sequence (P42224 1-750): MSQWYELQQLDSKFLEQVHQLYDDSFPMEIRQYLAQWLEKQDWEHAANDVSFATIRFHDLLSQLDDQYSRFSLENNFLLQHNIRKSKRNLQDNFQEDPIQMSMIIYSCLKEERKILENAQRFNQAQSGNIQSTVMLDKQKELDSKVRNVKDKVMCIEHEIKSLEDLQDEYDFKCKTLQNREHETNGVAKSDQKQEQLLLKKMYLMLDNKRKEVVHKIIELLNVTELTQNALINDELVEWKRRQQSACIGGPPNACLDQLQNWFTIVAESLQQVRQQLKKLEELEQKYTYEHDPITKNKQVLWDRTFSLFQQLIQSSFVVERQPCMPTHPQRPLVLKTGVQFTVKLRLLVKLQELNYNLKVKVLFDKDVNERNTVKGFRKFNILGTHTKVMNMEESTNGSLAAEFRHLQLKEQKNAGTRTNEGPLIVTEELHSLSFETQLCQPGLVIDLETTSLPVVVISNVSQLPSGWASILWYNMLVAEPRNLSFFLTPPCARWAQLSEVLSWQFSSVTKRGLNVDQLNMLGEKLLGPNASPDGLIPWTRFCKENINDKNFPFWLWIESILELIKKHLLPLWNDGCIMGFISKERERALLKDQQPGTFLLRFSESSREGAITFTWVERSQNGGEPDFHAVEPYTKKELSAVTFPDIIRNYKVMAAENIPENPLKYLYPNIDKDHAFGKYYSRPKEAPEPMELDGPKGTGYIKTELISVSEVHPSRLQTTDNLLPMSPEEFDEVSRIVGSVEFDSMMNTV
Method: (FIG. 5A) U87 cells were treated with HrR3 at a MOI of 5 and indicated concentration of nifuroxazide for 6 hours. Extracted protein was then subjected to western blot assay. (FIG. 5B) U87 cells were treated with indicated concentration of HrR3 or nifuroxazide or stattic or in combination for 72 hours. Cytotoxicity was measured by MTT assay. (FIG. 5C) Relative mRNA level (2^−ΔΔCT) is shown. Data are presented as mean SD, *P<0.05 vs corresponding vehicle treatment.
FIG. 19A and FIG. 19B, U87 cells (A) or CT26 cells (B) were treated with the indicated concentrations of HrR3 or NF or a combination. Total protein was extracted after 24 hours and subjected to western blot analysis. Band intensity was measured using Image J software and normalized to β-actin. Samples were run in triplicate and data are as means±S.E. Statistically significant differences are indicated by P<0.05 or P<0.01. FIG. 19C, Mice subcutaneously bearing U87 tumors were intratumorally injected with a single dose of HrR3 virus (1×10^6 PFU) and/or peritoneally injected doses of NF as indicated. Tumors were harvested on day 10 post treatment and total protein was extracted from a mouse of each treatment group and subjected to western blot analysis in triplicate. Results are reported as means±S.E.
Expression of key regulator of the Type1 interferon signaling, STAT1 and STAT3, was determined in nifuroxazide treated oHSV-1 infected U87 cells.
NF is a known inhibitor of STAT1 and STAT3. To evaluate the underlying molecular mechanism of the anti-tumour effect of the NF and oHSV-1 combination, the STAT1 and STAT3 status in U87 cells (FIG. 19A) and CT26 cells (FIG. 19B) cells was determined after an overnight treatment with NF and oncolytic viruses.

[2] = tested on: ICP27; experiment: Western blot of ICP27 in HrR3 infected U87 cells; format: cell-based, HSV-1; conditions: 0.5 μM, 1 μM and 10 μM nifuroxazide, HrR3 MOI-3, 24 hours
Method: FIGS. 4A-4C show the effect of nifuroxazide on HSV-1 gene expression. (FIG. 4A) U87 cells were treated with HrR3 viruses at a MOI-3 and indicated doses of nifuroxazide. 24 hours post infected, total protein was extracted and subjected to western blot analysis. (FIG. 4B) U87 cells were treated with HrR3 at a MOI-5 and indicated concentration of nifuroxazide for 6 hours. ICP27 mRNA level was detected by RT-qPCR. (FIG. 4C) Relative mRNA level (2^−ΔΔCT) is shown. Data are presented as mean SD, *P<0.05 vs corresponding vehicle treatment.
In this example, the underlying mechanism of nifuroxazide mediated oHSV-1 replication enhancement was examined. The effect of nifuroxazide on viral immediate early gene, ICP27 and ICP4 expression was established by Western blot analysis.

[3] = tested on: SF126 cells; experiment: MTT cytotoxicity assay, SF126 cells; format: cell-based; conditions: Homo sapiens, SF-126, 72 hours, read-out: Inhibitory concentration 50% (IC50)
Method: FIGS. 1A-1B are graphs that show an anti-tumor effect of nifuroxazide. (FIG. 1A) Cells were treated with indicated concentration of nifuroxazide for 72 hours. Cytotoxicity was measured by using MTT assay. (FIG. 1B) Subcutaneously U87 tumor bearing mice were peritoneally injected with indicated doses of nifuroxazide. Tumor size was measured using calipers at day 7 post nifuroxazide treatment.
In this example, the antitumor effect of nifuroxazide is evaluated in different tumor cells. Cells were treated with nifuroxazide for 72 hours (FIG. 1A). […] To verify the anti-tumor efficacy of nifuroxazide in vivo, animals with subcutaneous U87 tumor implants were injected in the peritoneum with vehicle, 1 mg/kg nifuroxazide and 50 mg/kg nifuroxazide. […] Tumor volume was reduced around 25% and 60% after 7 days treatment with 1 mg/kg nifuroxazide and 50 mg/kg nifuroxazide respectively (FIG. 1B).
Cells were seeded in a 96-well plate at a density of 1×104 (U87). After overnight incubation, cells were treated with only vehicle or indicated MOI of virus or indicated concentration of drugs or reagents. After 2 to 3 days of treatment cell viability was measured by MTT assay (Sigma, Canada) according to the manufacturer's instruction. […] After overnight incubation with lysis buffer, cell viability was measured at 595 nm using a plate reader (Envision 2103 Multilabel reader, Perkin Elmer).

O=C(N/N=C/c1ccc([N+](=O)[O-])o1)c1ccc(O)cc1 [nifuroxazide, Benzoic acid, 4-hydroxy-, [(5-nitro-2-furanyl)metylene]hydrazide]
HrR3 induced upregulation of STAT1 phosphorylation ([1]; 24 hours): effectively suppressed
STAT1 phosphorylation ([1]; HrR3 MOI of 5, 6 hours): dose dependent STAT1 and STAT3 phosphorylation reduction
phosphorylation of STAT1 ([1]; NF alone, 24 hours): dose dependent inhibition
ICP27 expression [2]: significantly increases ICP27 expression
IC50 [3]: ~20 µM
